# Reference: ChEMBL document CHEMBL5108078, “Design and Synthesis of Phenyl Sulfide-Based Cationic Amphiphiles as Membrane-Targeting Antimicrobial Agents against Gram-Positive Pathogens” (J Med Chem, 2022)
# Active and inactive are the calls of the source. The calls are words filed in the database; no cut-off is given here.
# Assays:
# Staphylococcus aureus [1] = assay: Antibacterial activity against Staphylococcus aureus ATCC 29213 assessed as inhibition of bacterial growth incubated for 24 hrs by microbroth dilution method; format: functional
# Staphylococcus aureus [2] = assay: Antibacterial activity against methicillin resistant Staphylococcus aureus N315 assessed as inhibition of bacterial growth incubated for 24 hrs by microbroth dilution method; format: functional
# Staphylococcus aureus [3] = assay: Antibacterial activity against methicillin resistant Staphylococcus aureus NCTC10442 assessed as inhibition of bacterial growth incubated for 24 hrs by microbroth dilution method; format: functional
# Staphylococcus aureus [4] = assay: Antibacterial activity against Staphylococcus aureus ATCC 29213 infected in mouse corneal infection model assessed as log reduction in bacterial load at 50 mg/ml pre-infected with bacteria for 24 hrs followed by compound administered four times a day for 3 consecutive weeks; format: functional; conditions: time 3 weeks
# [5] = Hemolytic activity in rabbit RBC incubated for 1 hr by microplate reader analysis; format: toxicity, cell-based, Oryctolagus cuniculus, Erythrocyte; conditions: rabbit red blood cells (erythrocytes)
# Bacillus subtilis = assay: Antibacterial activity against Bacillus subtilis CMCC63501 assessed as inhibition of bacterial growth incubated for 24 hrs by microbroth dilution method; format: functional
# [6] = system: Staphylococcus epidermidis; assay: Antibacterial activity against Staphylococcus epidermidis ATCC 12228 assessed as inhibition of bacterial growth incubated for 24 hrs by microbroth dilution method; format: functional
# [7] = system: Staphylococcus epidermidis; assay: Antibacterial activity against Staphylococcus epidermidis CMCC26069 assessed as inhibition of bacterial growth incubated for 24 hrs by microbroth dilution method; format: functional
# Enterococcus faecalis = assay: Antibacterial activity against Enterococcus faecalis ATCC 29212 assessed as inhibition of bacterial growth incubated for 24 hrs by microbroth dilution method; format: functional
# Staphylococcus aureus [8] = assay: Antibacterial activity against Staphylococcus aureus ATCC 29213 assessed as inhibition of bacterial growth in presence of 20 umol/L Fe2+ (reference value: […] microg/ml); format: functional
# Staphylococcus aureus [9] = assay: Bactericidal activity against Staphylococcus aureus ATCC 29213 at 4 to 8 times MIC after 0.5 hrs by time kill assay; format: functional
# Staphylococcus aureus [10] = assay: Bactericidal activity against Staphylococcus aureus ATCC 29213 at 4 to 8 times MIC after 24 hrs by time kill assay; format: functional, organism-based
# Staphylococcus aureus [11] = assay: Antibacterial activity against Staphylococcus aureus ATCC 29213 assessed as inhibition of bacterial growth in presence of 140 mmol/L Na+ (reference value: […] microg/ml); format: functional
# Staphylococcus aureus [12] = assay: Antibacterial activity against Staphylococcus aureus ATCC 29213 assessed as inhibition of bacterial growth in presence of 4.5 mmol/L K+ (reference value: […] microg/ml); format: functional
# Staphylococcus aureus [13] = assay: Antibacterial activity against Staphylococcus aureus ATCC 29213 assessed as inhibition of bacterial growth in presence of 2.50 mmol/L Ca2+ (reference value: […] microg/ml); format: functional
# Staphylococcus aureus [14] = assay: Antibacterial activity against Staphylococcus aureus ATCC 29213 assessed as inhibition of bacterial growth in presence of 1.00 mmol/L Mg2+ (reference value: […] microg/ml); format: functional
# Staphylococcus aureus [15] = assay: Antibacterial activity against Staphylococcus aureus ATCC 29213 assessed as inhibition of bacterial growth in presence of 19 umol/L Zn2+ (reference value: […] microg/ml); format: functional
# Staphylococcus aureus [16] = assay: Antibacterial activity against Staphylococcus aureus ATCC 29213 assessed as inhibition of bacterial growth in presence of 20 umol/L […] (reference value: […] microg/ml); format: functional
# Staphylococcus aureus [17] = assay: Antibacterial activity against methicillin resistant Staphylococcus aureus N315 assessed as inhibition of bacterial growth in presence of 140 mmol/L Na+ (reference value: […] microg/ml); format: functional
# Staphylococcus aureus [18] = assay: Antibacterial activity against methicillin resistant Staphylococcus aureus N315 assessed as inhibition of bacterial growth in presence of 4.5 mmol/L K+ (reference value: […] microg/ml); format: functional
# Staphylococcus aureus [19] = assay: Antibacterial activity against methicillin resistant Staphylococcus aureus N315 assessed as inhibition of bacterial growth in presence of 2.50 mmol/L Ca2+ (reference value: […] microg/ml); format: functional
# Staphylococcus aureus [20] = assay: Antibacterial activity against methicillin resistant Staphylococcus aureus N315 assessed as inhibition of bacterial growth in presence of 1.00 mmol/L Mg2+ (reference value: […] microg/ml); format: functional
# Staphylococcus aureus [21] = assay: Antibacterial activity against methicillin resistant Staphylococcus aureus N315 assessed as inhibition of bacterial growth in presence of 19 umol/L Zn2+ (reference value: […] microg/ml); format: functional
# Staphylococcus aureus [22] = assay: Antibacterial activity against methicillin resistant Staphylococcus aureus N315 assessed as inhibition of bacterial growth in presence of 20 umol/L Fe2+ (reference value: […] microg/ml); format: functional
# Staphylococcus aureus [23] = assay: Antibacterial activity against methicillin resistant Staphylococcus aureus N315 assessed as inhibition of bacterial growth in presence of 20 umol/L […] (reference value: […] microg/ml); format: functional
# Staphylococcus aureus [24] = assay: Antibacterial activity against methicillin resistant Staphylococcus aureus NCTC10442 assessed as inhibition of bacterial growth in presence of 140 mmol/L Na+ (reference value: […] microg/ml); format: functional
# Staphylococcus aureus [25] = assay: Antibacterial activity against methicillin resistant Staphylococcus aureus NCTC10442 assessed as inhibition of bacterial growth in presence of 4.5 mmol/L K+ (reference value: […] microg/ml); format: functional
# Staphylococcus aureus [26] = assay: Antibacterial activity against methicillin resistant Staphylococcus aureus NCTC10442 assessed as inhibition of bacterial growth in presence of 2.50 mmol/L Ca2+ (reference value: […] microg/ml); format: functional
# Staphylococcus aureus [27] = assay: Antibacterial activity against methicillin resistant Staphylococcus aureus NCTC10442 assessed as inhibition of bacterial growth in presence of 1.00 mmol/L Mg2+ (reference value: […] microg/ml); format: functional
# Staphylococcus aureus [28] = assay: Antibacterial activity against methicillin resistant Staphylococcus aureus NCTC10442 assessed as inhibition of bacterial growth in presence of 19 umol/L Zn2+ (reference value: […] microg/ml); format: functional
# Staphylococcus aureus [29] = assay: Antibacterial activity against methicillin resistant Staphylococcus aureus NCTC10442 assessed as inhibition of bacterial growth in presence of 20 umol/L Fe2+ (reference value: […] microg/ml); format: functional
# Staphylococcus aureus [30] = assay: Antibacterial activity against methicillin resistant Staphylococcus aureus NCTC10442 assessed as inhibition of bacterial growth in presence of 20 umol/L […] (reference value: […] microg/ml); format: functional
# Cell membrane [31] = assay: Induction of cell membrane disruption in Staphylococcus aureus ATCC 29213 assessed as increase in fluorescence intensity measured for 100 mins by SYTOX green assay; format: subcellular; conditions: DDE = dose-dependent effect
# Cell membrane [32] = assay: Induction of cell membrane disruption in methicillin resistant Staphylococcus aureus NCTC10442 assessed as increase in fluorescence intensity measured for 100 mins by SYTOX green assay; format: subcellular; conditions: DDE = dose-dependent effect
# [33] = Displacement of BODIPY-TR-cadaverine from Lipoteichoic acid at 4 times MIC preincubated with LTA for 15 mins followed by compound addition and measured for 30 mins by fluorescence based microplate reader assay; conditions: time 45.0 min
# [34] = Displacement of BODIPY-TR-cadaverine from Lipoteichoic acid preincubated with LTA for 15 mins followed by compound addition and measured for 30 mins by fluorescence based microplate reader assay; conditions: time 45.0 min; DDE = dose-dependent effect
# Cell membrane [35] = assay: Disruption of membrane integrity in Staphylococcus aureus ATCC 29213 assessed as cell membrane damage at 8 times MIC incubated for 2 hrs by Live/dead staining based laser confocal microscopy analysis; format: subcellular
# Staphylococcus aureus [36] = assay: Induction of morphological changes in Staphylococcus aureus ATCC 29213 assessed as perforation at 8 times MIC incubated for 2 hrs by TEM analysis; format: functional, organism-based
# [37] = Cytotoxicity against mouse NCTC clone 929 cells assessed as cell viability at 50 ug/ml after 24 hrs by CCK8 assay; format: toxicity, cell-based; conditions: at 50 µg/mL, read-out: Activity
# [38] = Cytotoxicity against human HEK293 cells assessed as cell viability at 50 ug/ml after 24 hrs by CCK8 assay; format: toxicity, cell-based; conditions: at 50 µg/mL, read-out: Activity
# Staphylococcus aureus [39] = assay: Antibacterial activity against Staphylococcus aureus ATCC 29213 infected in mouse corneal infection model assessed as log reduction in bacterial load at 5 mg/ml pre-infected with bacteria for 24 hrs followed by compound administered four times a day for 3 consecutive weeks; format: functional; conditions: time 3 weeks
# Staphylococcus aureus [40] = assay: Antibacterial activity against Staphylococcus aureus ATCC 15981 assessed as inhibition of bacterial growth incubated for 24 hrs by microbroth dilution method; format: functional
structure (smiles),measurement,setting,value
CN[C@H](CC(C)C)C(=O)N[C@H]1C(=O)N[C@@H](CC(N)=O)C(=O)N[C@H]2C(=O)N[C@H]3C(=O)N[C@H](C(=O)N[C@H](C(=O)O)c4cc(O)cc(O)c4-c4cc3ccc4O)[C@H](O)c3ccc(c(Cl)c3)Oc3cc2cc(c3O[C@@H]2O[C@H](CO)[C@@H](O)[C@H](O)[C@H]2O[C@H]2C[C@](C)(N)[C@H](O)[C@H](C)O2)Oc2ccc(cc2Cl)[C@H]1O [VANCOMYCIN],MIC,Staphylococcus aureus [1],0.78 µg/mL
same,MIC,Staphylococcus aureus [2],1.56 µg/mL
same,MIC,Staphylococcus aureus [3],0.78 µg/mL
same,log(activity),Staphylococcus aureus [4],5.21
COC(=O)[C@H](CCCNC(=N)N)NC(=O)COc1ccc(C(C)(C)CC(C)(C)C)cc1Sc1cc(C(C)(C)CC(C)(C)C)ccc1OCC(=O)N[C@@H](CCCNC(=N)N)C(=O)OC,HC50 at 1 h,[5],> 200 µg/mL
same,MIC,Staphylococcus aureus [1],1.56 µg/mL
same,MIC,Staphylococcus aureus [2],0.78 µg/mL
same,MIC,Staphylococcus aureus [3],0.78 µg/mL
same,MIC,Bacillus subtilis,0.78 µg/mL
same,MIC,[6],0.39 µg/mL
same,MIC,[7],0.39 µg/mL
same,MIC,Enterococcus faecalis,0.78 µg/mL
same,MIC,Staphylococcus aureus [8],0.78 µg/mL
same,Activity,Staphylococcus aureus [9],99.99%
same,Activity,Staphylococcus aureus [10],Active
same,MIC,Staphylococcus aureus [11],1.56 µg/mL
same,MIC,Staphylococcus aureus [12],1.56 µg/mL
same,MIC,Staphylococcus aureus [13],1.56 µg/mL
same,MIC,Staphylococcus aureus [14],1.56 µg/mL
same,MIC,Staphylococcus aureus [15],0.78 µg/mL
same,MIC,Staphylococcus aureus [16],0.78 µg/mL
same,MIC,Staphylococcus aureus [17],0.39 µg/mL
same,MIC,Staphylococcus aureus [18],0.78 µg/mL
same,MIC,Staphylococcus aureus [19],0.78 µg/mL
same,MIC,Staphylococcus aureus [20],0.78 µg/mL
same,MIC,Staphylococcus aureus [21],0.78 µg/mL
same,MIC,Staphylococcus aureus [22],0.78 µg/mL
same,MIC,Staphylococcus aureus [23],0.78 µg/mL
same,MIC,Staphylococcus aureus [24],0.78 µg/mL
same,MIC,Staphylococcus aureus [25],0.78 µg/mL
same,MIC,Staphylococcus aureus [26],0.78 µg/mL
same,MIC,Staphylococcus aureus [27],0.78 µg/mL
same,MIC,Staphylococcus aureus [28],0.78 µg/mL
same,MIC,Staphylococcus aureus [29],0.78 µg/mL
same,MIC,Staphylococcus aureus [30],0.78 µg/mL
same,Activity,Cell membrane [31],Dde
same,Activity,Cell membrane [32],Dde
same,Activity,[33],62.2%
same,Activity,[34],Dde
same,Activity,Cell membrane [35],Active
same,Activity,Staphylococcus aureus [36],Active
same,"viability at 24 h, 50 ug/ml",[37],53.1%
same,"viability at 24 h, 50 ug/ml",[38],55.9%
same,log(activity),Staphylococcus aureus [39],6.81
same,MIC,Staphylococcus aureus [40],0.78 µg/mL
